pIC50: −log10 of the molar value. Where a name gives a salt, the structure may show the parent alone.
Biological target: PD-1/PD-L1 (Homo sapiens (Human), UniProt Q9NZQ7)
Assay: PD-1/PD-L1 Homogenous Time-Resolved Fluorescence (HTRF) binding assay
Conditions: PD-1-Ig (20 nM final)/PD-L1-His (10 nM final) binding assay
Excerpt: The ability of the compounds of the invention to bind to PD-L1 was investigated using a PD-1/PD-L1 Homogenous Time-Resolved Fluorescence (HTRF) binding assay.
The interaction of PD-1 and PD-L1 can be assessed using soluble, purified preparations of the extracellular domains of the two proteins. The PD-1 and PD-L1 protein extracellular domains were expressed as fusion proteins with detection tags, for PD-1, the tag was the Fc portion of Immunoglobulin (PD-1-Ig) and for PD-L1 it was the 6 histidine motif (PD-L1-His). All binding studies were performed in an HTRF assay buffer consisting of dPBS supplemented with 0.1% […] bovine serum albumin and 0.05% (v/v) Tween-20. For the h/PD-L1-His binding assay, inhibitors were pre-incubated with PD-L1-His (10 nM final) for 15m in 4 μl of assay buffer, followed by addition of PD-1-Ig (20 nM final) in 1 μl of assay buffer and further incubation for 15 m. HTRF detection was achieved using europium crypate-labeled anti-Ig (1 nM final) and allophycocyanin (APC) labeled anti-His (20 nM final). Antibodies were diluted in HTRF detection buffer and 5 μl was dispensed on top of the binding reaction. The reaction mixture was allowed to equilibrate for 30 minutes and the resulting signal (665 nm/620 nm ratio) was obtained using an EnVision fluorometer. Additional binding assays were established between the human proteins PD-1-Ig/PD-L2-His (20 & 5 nM, respectively) and CD80-His/PD-L1-Ig (100 & 10 nM, respectively).
Recombinant Proteins: Human PD-1 (25-167) with a C-terminal human Fc domain of immunoglobulin G (Ig) epitope tag [hPD-1 (25-167)-3S-IG] and human PD-L1 (18-239) with a C-terminal His epitope tag [hPD-L1(18-239)-TVMV-His] were expressed in HEK293T cells and purified sequentially by ProteinA affinity chromatography and size exclusion chromatography. Human PD-L2-His and CD80-His was obtained through commercial sources.
Homogenous Time-Resolved Fluorescence (HTRF) Assays of Binding of Soluble PD-1 to Soluble PD-L1. Soluble PD-1 and soluble PD-L1 refers to proteins with carboxyl-end truncations that remove the transmembrane-spanning regions and are fused to heterologous sequences, specifically the Fc portion of the human immunoglobuling G sequence (Ig) or the hexahistidine epitope tag (His). All binding studies were performed in an HTRF assay buffer consisting of dPBS supplemented with 0.1% (w/v) bovine serum albumin and 0.05% (v/v) Tween-20. For the PD-1-Ig/PD-L1-His binding assay, inhibitors were pre-incubated with PD-L1-His (10 nM final) for 15m in 4 μl of assay buffer, followed by addition of PD-1-Ig (20 nM final) in 1 μl of assay buffer and further incubation for 15 m. PD-L1 fusion proteins from either human, cynomologous macaques, mouse, or other species were used. HTRF detection was achieved using europium crypate-labeled anti-Ig monoclonal antibody (1 nM final) and allophycocyanin (APC) labeled anti-His monoclonal antibody (20 nM final). Antibodies were diluted in HTRF detection buffer and 5 μl was dispensed on top of binding reaction. The reaction was allowed to equilibrate for 30 minutes and signal (665 nm/620 nm ratio) was obtained using an EnVision fluorometer. Additional binding assays were established between PD-1-Ig/PD-L2-His (20 and 5 nM, respectively), CD80-His/PD-L1-Ig (100 and 10 nM, respectively) and CD80-His/CTLA4-Ig (10 and 5 nM, respectively).
Recombinant Proteins. Carboxyl-truncated human PD-1 (amino acids 25-167) with a C-terminal human Ig epitope tag [hPD-1 (25-167)-3S-IG] and human PD-L1 (amino acids 18-239) with a C-terminal His epitope tag [hPD-L1(19-239)-tobacco vein mottling virus protease cleavage site (TVMV)-His] were expressed in HEK293T cells and purified sequentially by recombinant Protein A affinity chromatography and size exclusion chromatography. Human PD-L2-His (Sino Biologicals), CD80-His (Sino Biologicals), CTLA4-Ig (RnD Systems) were all obtained through commercial sources.

Chain of PD-1/PD-L1 (Q9NZQ7 18-239): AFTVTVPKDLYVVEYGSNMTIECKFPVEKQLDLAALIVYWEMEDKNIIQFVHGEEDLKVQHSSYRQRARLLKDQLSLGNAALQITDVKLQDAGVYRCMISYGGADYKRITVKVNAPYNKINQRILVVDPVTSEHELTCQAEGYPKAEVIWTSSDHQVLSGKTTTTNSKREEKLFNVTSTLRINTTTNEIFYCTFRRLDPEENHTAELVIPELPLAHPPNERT

| pIC50 | SMILES |
| --- | --- |
| 7.55 | Cc1c(COc2cc(OCC3CCCN(C)C3)c(CN3CCCC[C@H]3C(=O)O)cc2Cl)cccc1-c1ccc2c(c1)OCCO2 (stereo partly drawn) [Example 2012, (2S)-1-(5-Chloro-4-((3-(2,3-dihydrobenzo[b][1,4]dioxin-6-yl)-2-methylbenzyl)oxy)-2-((1-methylpiperidin-3-yl)methoxy)benzyl)piperidine-2-carboxylic acid] |
| 7.58 | Cc1c(COc2cc(OCC3CNCCO3)c(CN3CCCC[C@H]3C(=O)O)cc2Cl)cccc1-c1ccc2c(c1)OCCO2 (stereo partly drawn) [Example 2011, (2S)-1-(5-Chloro-4-((3-(2,3-dihydrobenzo[b][1,4]dioxin-6-yl)-2-methylbenzyl)oxy)-2-(morpholin-2-ylmethoxy)benzyl)piperidine-2-carboxylic acid acetic acid salt] |
| 8.17 | Cc1cnc(COc2cc(OCc3cccc(-c4ccc5c(c4)OCCO5)c3C)c(Cl)cc2CN[C@@](C)(CO)C(=O)O)cn1 [Example 1002, (S)-2-((5-Chloro-4-((3-(2,3-dihydrobenzo[b][1,4]dioxin-6-yl)-2-methylbenzyl)oxy)-2-((5-methylpyrazin-2-yl)methoxy)benzyl)amino)-3-hydroxy-2-methylpropanoic acid] |
| 8.68 | Cc1c(COc2cc(OCCN3CCCCC3)c(CNC(C)(CO)CO)cc2Cl)cccc1-c1ccc2c(c1)OCCO2 [Example 1044, 2-((5-Chloro-4-((3-(2,3-dihydrobenzo[b][1,4]dioxin-6-yl)-2-methylbenzyl)oxy)-2-(2-(piperidin-1-yl)ethoxy)benzyl)amino)-2-methylpropane-1,3-diol] |
| 8.36 | Cc1c(COc2cc(OC[C@H](C)CO)c(CN[C@](C)(CO)C(=O)O)cc2Cl)cccc1-c1ccc2c(c1)OCCO2 [Example 1032, (R)-2-((5-Chloro-4-((3-(2,3-dihydrobenzo[b][1,4]dioxin-6-yl)-2-methylbenzyl)oxy)-2-((R)-3-hydroxy-2-methylpropoxy)benzyl)amino)-3-hydroxy-2-methylpropanoic acid] |
| 6.78 | Cc1c(COc2cc(OCC3CCCCC3)c(CN3CCCC[C@H]3C(=O)O)cc2Cl)cccc1-c1ccc2c(c1)OCCO2 [Example 1040, (S)-1-(5-Chloro-2-(cyclohexylmethoxy)-4-((3-(2,3-dihydrobenzo[b][1,4]dioxin-6-yl)-2-methylbenzyl)oxy)benzyl)piperidine-2-carboxylic acid] |
| 8.24 | Cc1c(COc2cc(OCCN3CCOCC3)c(CN3CCCC[C@H]3C(=O)O)cc2Cl)cccc1-c1ccc2c(c1)OCCO2 [Example 1038, (S)-1-(5-Chloro-4-((3-(2,3-dihydrobenzo[b][1,4]dioxin-6-yl)-2-methylbenzyl)oxy)-2-(2-morpholinoethoxy)benzyl)piperidine-2-carboxylic acid] |
| 8.40 | COC(=O)CCNS(=O)(=O)c1cncc(COc2cc(OCc3cccc(-c4ccc5c(c4)OCCO5)c3C)c(Cl)cc2CN[C@@](C)(CO)C(=O)O)c1 [Example 1018, (S)-2-((5-Chloro-4-((3-(2,3-dihydrobenzo[b][1,4]dioxin-6-yl)-2-methylbenzyl)oxy)-2-((5-(N-(3-methoxy-3-oxopropyl)sulfamoyl)pyridin-3-yl)methoxy)benzyl)amino)-3-hydroxy-2-methylpropanoic acid] |
| 8.55 | Cc1c(COc2cc(OCC3CCCN(C)C3)c(CN[C@@H](CO)C(=O)O)cc2Cl)cccc1-c1ccc2c(c1)OCCO2 (single isomer, unassigned) [Example 2006] |
| 8.34 | Cc1c(COc2cc(OCCN3CC[C@@H](O)C3)c(CN3CCCC[C@H]3C(=O)O)cc2Cl)cccc1-c1ccc2c(c1)OCCO2 [Example 1023, (S)-1-(5-Chloro-4-((3-(2,3-dihydrobenzo[b][1,4]dioxin-6-yl)-2-methylbenzyl)oxy)-2-(2-((R)-3-hydroxypyrrolidin-1-yl)ethoxy)benzyl)piperidine-2-carboxylic acid] |
| 8.74 | Cc1c(COc2cc(OCCN3CCC(O)(C(=O)O)CC3)c(CN3CCCC[C@H]3C(=O)O)cc2Cl)cccc1-c1ccc2c(c1)OCCO2 [Example 1054, (S)-1-(2-(2-(4-Carboxy-4-hydroxypiperidin-1-yl)ethoxy)-5-chloro-4-((3-(2,3-dihydrobenzo[b]1[1,4]dioxin-6-yl)-2-methylbenzyl)oxy)benzyl)piperidine-2-carboxylic acid] |
| 8.74 | Cc1c(COc2cc(OCCN3CCOCC3)c(CN[C@](C)(CO)C(=O)O)cc2Cl)cccc1-c1ccc2c(c1)OCCO2 [Example 1037, (R)-2-((5-Chloro-4-((3-(2,3-dihydrobenzo[b][1,4]dioxin-6-yl)-2-methylbenzyl)oxy)-2-(2-morpholinoethoxy)benzyl)amino)-3-hydroxy-2-methylpropanoic acid] |
| 8.27 | Cc1c(COc2cc(OCc3cnn(CC(=O)O)c3)c(CN[C@@](C)(CO)C(=O)O)cc2Cl)cccc1-c1ccc2c(c1)OCCO2 [Example 1016, (S)-2-((2-((1-(Carboxymethyl)-1H-pyrazol-4-yl)methoxy)-5-chloro-4-((3-(2,3-dihydrobenzo[b][1,4]dioxin-6-yl)-2-methylbenzyl)oxy)benzyl)amino)-3-hydroxy-2-methylpropanoic acid] |
| 7.36 | Cc1c(COc2cc(OCc3cncc(SCc4ccccc4)c3)c(CN3CCCC[C@H]3C(=O)O)cc2Cl)cccc1-c1ccc2c(c1)OCCO2 [Example 1010, (S)-1-(2-((5-(Benzylthio)pyridin-3-yl)methoxy)-5-chloro-4-((3-(2,3-dihydrobenzo [b][1,4]dioxin-6-yl)-2-methylbenzyl)oxy)benzyl)piperidine-2-carboxylic acid] |
| 9.00 | COC(=O)C1(O)CCN(CCOc2cc(OCc3cccc(-c4ccc5c(c4)OCCO5)c3C)c(Cl)cc2CN2CCCC[C@H]2C(=O)O)CC1 [Example 1051, (S)-1-(5-Chloro-4-((3-(2,3-dihydrobenzo[b][1,4]dioxin-6-yl)-2-methylbenzyl)oxy)-2-(2-(4-hydroxy-4-(methoxycarbonyl)piperidin-1-yl)ethoxy)benzyl)piperidine-2-carboxylic acid] |
| 8.24 | Cc1c(COc2cc(OCC3CCCN(C)C3)c(CN[C@@H](CO)C(=O)O)cc2Cl)cccc1-c1ccc2c(c1)OCCO2 (stereo partly drawn) [Example 2004, (2S)-2-((5-chloro-4-((3-(2,3-dihydrobenzo[b][1,4]dioxin-6-yl)-2-methylbenzyl)oxy)-2-((1-methylpiperidin-3-yl)methoxy)benzyl)amino)-3-hydroxypropanoic acid] |
| 7.85 | Cc1c(COc2cc(OCC3CCC3)c(CNC(C)(CO)CO)cc2Cl)cccc1-c1ccc2c(c1)OCCO2 [Example 1049, 2-((5-Chloro-2-(cyclobutylmethoxy)-4-((3-(2,3-dihydrobenzo[b][1,4]dioxin-6-yl)-2-methylbenzyl)oxy)benzyl)amino)-2-methylpropane-1,3-diol] |
| 7.66 | Cc1c(COc2cc(OCCN3CCCC(O)(C(F)(F)F)C3)c(CN3CCCC[C@H]3C(=O)O)cc2Cl)cccc1-c1ccc2c(c1)OCCO2 (stereo partly drawn) [Example 1058, (2S)-1-(5-Chloro-4-((3-(2,3-dihydrobenzo[b][1,4]dioxin-6-yl)-2-methylbenzyl)oxy)-2-(2-(3-hydroxy-3-(trifluoromethyl)piperidin-1-yl)ethoxy)benzyl)piperidine-2-carboxylic acid] |

Source: US20250230153A1, “2,3-DIHYDROBENZO[B][1,4]DIOXIN-6-YL CONTAINING COMPOUNDS USEFUL AS IMMUNOMODULATORS” (BRISTOL-MYERS SQUIBB COMPANY, priority 2021, published 2025)
